{"source": "patent US20220160716A1", "about": "(SORBONNE UNIVERSITE, priority 2019, published 2022)", "key": {"[1]": {"molecular_target": "ABCB4-I490T (Homo sapiens, UniProt P21439, I490T)", "sequence (P21439 1-1279 isoform P21439-2 I490T)": "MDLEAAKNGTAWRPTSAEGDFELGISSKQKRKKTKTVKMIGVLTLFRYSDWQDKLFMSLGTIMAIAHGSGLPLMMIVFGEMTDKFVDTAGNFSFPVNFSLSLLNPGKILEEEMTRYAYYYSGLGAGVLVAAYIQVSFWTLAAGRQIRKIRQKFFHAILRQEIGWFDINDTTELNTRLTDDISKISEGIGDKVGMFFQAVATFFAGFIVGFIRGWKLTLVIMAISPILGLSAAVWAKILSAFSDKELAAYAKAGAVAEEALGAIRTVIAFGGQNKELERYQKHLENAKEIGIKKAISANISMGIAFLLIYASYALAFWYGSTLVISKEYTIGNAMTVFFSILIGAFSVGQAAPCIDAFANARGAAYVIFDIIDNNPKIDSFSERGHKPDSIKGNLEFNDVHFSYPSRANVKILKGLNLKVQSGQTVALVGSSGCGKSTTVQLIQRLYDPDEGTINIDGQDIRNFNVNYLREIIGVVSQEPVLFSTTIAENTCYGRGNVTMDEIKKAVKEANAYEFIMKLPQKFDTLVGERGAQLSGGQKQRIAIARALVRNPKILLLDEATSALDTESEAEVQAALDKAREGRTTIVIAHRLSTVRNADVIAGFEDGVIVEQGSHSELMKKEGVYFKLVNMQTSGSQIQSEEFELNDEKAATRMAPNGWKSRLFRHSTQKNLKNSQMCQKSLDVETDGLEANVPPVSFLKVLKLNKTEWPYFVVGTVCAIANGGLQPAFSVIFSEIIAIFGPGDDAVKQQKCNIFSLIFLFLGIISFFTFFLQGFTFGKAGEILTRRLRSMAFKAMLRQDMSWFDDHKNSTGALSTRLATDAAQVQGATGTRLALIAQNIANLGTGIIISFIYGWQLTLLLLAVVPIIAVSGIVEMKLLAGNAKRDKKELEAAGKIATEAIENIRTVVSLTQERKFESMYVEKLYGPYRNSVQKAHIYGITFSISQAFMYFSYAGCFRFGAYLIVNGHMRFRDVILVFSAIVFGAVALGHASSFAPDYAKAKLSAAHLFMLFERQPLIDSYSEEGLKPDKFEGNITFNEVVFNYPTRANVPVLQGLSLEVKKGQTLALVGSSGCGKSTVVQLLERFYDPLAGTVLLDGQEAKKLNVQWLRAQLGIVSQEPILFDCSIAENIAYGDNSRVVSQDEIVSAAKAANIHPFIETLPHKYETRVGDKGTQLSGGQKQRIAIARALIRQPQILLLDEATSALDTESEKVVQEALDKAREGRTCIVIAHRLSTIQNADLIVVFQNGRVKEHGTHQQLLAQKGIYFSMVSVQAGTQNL", "assay": "Canalicular localisation of ABCB4-I490T by indirect immunofluorescence in HepG2 cells", "assay_type": "cell-based", "set-up": "The subcloning of wild type (WT) ABCB4, isoform A (NM_000443.3), into pcDNA3 vector has been described; expressed in transfected cells; host or cells: HepG2 (immunofluorescence)", "conditions": "25 μM", "experimental": "(§1) For indirect immunofluorescence, HepG2 cells were grown on glass coverslips and after transfection and treatments, they were fixed and permeabilized during 1 min at −20° C. in ice-cold methanol. Then ABCB4 and ABCC2 were immunolabelled using the mouse monoclonal P3II-26 (IgG2b) and M2I-4 (IgG1) antibodies (Enzo Life Sciences), respectively. AlexaFluor® 555 and AlexaFluor® 488 conjugated isotype-specific secondary antibodies (Thermo Fisher Scientific) and Hoechst 33342 (Thermo Fisher Scientific) were used to label ABCB4, ABCC2 and nuclei, respectively. Images were acquired using an IX83 inverted fluorescence microscope from Olympus (Rungis, France), equipped with a UPLSAPO 60XS2 silicone immersion objective and a Hamamatsu ORCA Flash4.0 digital CMOS camera, and analysed using Olympus CellSens Dimension Desktop version 1.16 and Adobe Photoshop version 8.0.1. For each experiment, all images were acquired with constant settings (acquisition time and correction of signal intensities)."}, "[2]": {"molecular_target": "ABCB4-I541F (Homo sapiens, UniProt P21439, I541F)", "sequence (P21439 1-1279 isoform P21439-2 I541F)": "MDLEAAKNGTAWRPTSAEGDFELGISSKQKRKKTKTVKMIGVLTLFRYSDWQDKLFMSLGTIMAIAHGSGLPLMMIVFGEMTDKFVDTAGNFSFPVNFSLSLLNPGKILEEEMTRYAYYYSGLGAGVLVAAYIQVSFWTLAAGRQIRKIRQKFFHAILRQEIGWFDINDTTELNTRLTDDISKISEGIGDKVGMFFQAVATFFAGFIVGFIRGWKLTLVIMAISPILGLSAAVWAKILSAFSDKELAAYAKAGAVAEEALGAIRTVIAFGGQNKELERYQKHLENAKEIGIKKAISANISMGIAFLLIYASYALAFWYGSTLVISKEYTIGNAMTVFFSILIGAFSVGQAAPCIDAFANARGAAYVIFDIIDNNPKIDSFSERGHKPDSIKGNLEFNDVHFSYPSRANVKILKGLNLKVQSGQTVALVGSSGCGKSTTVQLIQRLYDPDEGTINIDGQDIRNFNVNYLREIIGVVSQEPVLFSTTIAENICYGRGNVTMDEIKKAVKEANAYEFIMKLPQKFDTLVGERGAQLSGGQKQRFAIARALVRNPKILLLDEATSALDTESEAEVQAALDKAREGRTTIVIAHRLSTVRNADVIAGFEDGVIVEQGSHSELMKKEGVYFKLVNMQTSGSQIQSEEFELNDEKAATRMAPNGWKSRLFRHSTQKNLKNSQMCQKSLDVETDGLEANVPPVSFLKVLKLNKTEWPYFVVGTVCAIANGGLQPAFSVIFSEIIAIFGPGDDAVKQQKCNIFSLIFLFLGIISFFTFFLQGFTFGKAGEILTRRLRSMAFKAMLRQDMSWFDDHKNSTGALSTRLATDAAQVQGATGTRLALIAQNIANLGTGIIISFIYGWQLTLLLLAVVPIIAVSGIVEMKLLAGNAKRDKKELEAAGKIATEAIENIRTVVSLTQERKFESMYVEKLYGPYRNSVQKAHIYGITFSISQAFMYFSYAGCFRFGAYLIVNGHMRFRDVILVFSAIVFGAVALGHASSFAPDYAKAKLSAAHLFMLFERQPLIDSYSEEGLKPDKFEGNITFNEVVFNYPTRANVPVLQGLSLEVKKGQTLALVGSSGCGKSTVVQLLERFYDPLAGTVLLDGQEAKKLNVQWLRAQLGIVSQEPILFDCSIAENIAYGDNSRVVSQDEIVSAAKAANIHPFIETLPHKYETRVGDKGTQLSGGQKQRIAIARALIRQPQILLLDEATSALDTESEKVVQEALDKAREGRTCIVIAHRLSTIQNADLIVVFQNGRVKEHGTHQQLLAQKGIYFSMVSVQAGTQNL", "assay": "Maturation of ABCB4-I541F by immunoblot in HEK cells", "assay_type": "cell-based", "set-up": "The subcloning of wild type (WT) ABCB4, isoform A (NM_000443.3), into pcDNA3 vector has been described; expressed in transfected cells; host or cells: HEK-293 (immunoblot, PC secretion)", "conditions": "for maturation (mature form) of ABCB4-I541F: HEK cells, 100 μM, 16 hours, immunoblot; for correction of ABCB4-I541F maturation: HEK cells, 5, 10 and 25 μM", "experimental": "(§2) Cyclosporin A (CsA) was from Santa Cruz Biotechnologies (Dallas, Tex.). […] Each compound was solubilized in dimethylsulfoxide (DMSO) as 1000× concentrated stock solutions in order to treat cells with 5 μM to 100 μM final concentrations, using DMSO as control vehicle at the same dilution (0.1% DMSO for all conditions). The cells were treated 24 hours post-transfection with these drugs during 16 hours, except for the viability assays for which cells were treated during three days. After drug treatment, cells were used for immunoanalyses, cell viability assays or PC secretion assays.\nWestern blots and indirect immunofluorescence were performed as previously described (2, 12). […] Signals were detected with ECL prime western blotting detection reagent (GE Healthcare, Velizy-Villacoublay, France) and quantified in the linear range of detection using ImageJ 1.50i software (U.S. National Institutes of Health, Bethesda, Md.)."}, "[3]": {"molecular_target": "T1, ABCB4-WT (Homo sapiens, UniProt P21439)", "T1 construct": "The subcloning of wild type (WT) ABCB4, isoform A (NM_000443.3), into pcDNA3 vector has been described; expressed in transfected cells; host or cells: HEK-293", "T1 sequence (P21439 1-1279 isoform P21439-2)": "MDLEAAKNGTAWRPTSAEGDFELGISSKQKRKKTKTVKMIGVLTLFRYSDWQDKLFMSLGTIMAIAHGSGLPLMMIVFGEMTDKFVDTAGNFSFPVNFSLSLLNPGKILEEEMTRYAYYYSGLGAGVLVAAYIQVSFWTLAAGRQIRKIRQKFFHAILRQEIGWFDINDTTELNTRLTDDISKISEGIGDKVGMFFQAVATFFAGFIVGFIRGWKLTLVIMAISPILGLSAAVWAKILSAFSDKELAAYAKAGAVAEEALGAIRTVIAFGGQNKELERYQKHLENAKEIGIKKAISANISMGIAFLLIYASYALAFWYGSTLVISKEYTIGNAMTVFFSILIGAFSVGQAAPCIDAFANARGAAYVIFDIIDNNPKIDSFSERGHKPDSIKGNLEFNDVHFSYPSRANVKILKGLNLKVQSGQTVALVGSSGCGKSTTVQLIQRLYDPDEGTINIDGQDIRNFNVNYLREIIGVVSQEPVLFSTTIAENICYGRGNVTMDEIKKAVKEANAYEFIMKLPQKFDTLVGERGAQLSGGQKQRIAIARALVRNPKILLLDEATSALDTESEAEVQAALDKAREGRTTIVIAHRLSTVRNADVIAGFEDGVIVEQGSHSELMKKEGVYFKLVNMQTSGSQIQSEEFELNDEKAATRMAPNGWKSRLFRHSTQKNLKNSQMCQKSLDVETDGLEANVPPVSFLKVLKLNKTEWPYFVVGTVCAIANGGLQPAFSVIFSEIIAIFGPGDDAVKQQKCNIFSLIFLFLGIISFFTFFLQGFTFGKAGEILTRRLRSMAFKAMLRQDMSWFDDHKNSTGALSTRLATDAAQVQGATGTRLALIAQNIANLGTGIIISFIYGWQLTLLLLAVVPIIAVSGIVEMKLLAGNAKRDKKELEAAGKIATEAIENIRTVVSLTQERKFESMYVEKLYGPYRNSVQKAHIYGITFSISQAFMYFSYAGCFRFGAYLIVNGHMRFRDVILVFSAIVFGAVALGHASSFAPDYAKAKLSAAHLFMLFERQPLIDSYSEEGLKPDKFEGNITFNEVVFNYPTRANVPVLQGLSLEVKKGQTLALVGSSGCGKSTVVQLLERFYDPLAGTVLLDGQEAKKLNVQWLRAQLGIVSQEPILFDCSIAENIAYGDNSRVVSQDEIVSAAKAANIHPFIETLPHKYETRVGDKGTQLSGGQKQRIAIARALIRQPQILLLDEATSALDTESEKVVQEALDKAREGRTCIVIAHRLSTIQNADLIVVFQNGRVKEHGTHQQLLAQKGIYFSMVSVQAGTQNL", "assay": "ABCB4-mediated phosphatidylcholine secretion, HEK cells expressing ABCB4-WT", "assay_type": "cell-based", "conditions": "for inhibition of ABCB4-WT-mediated PC secretion compared to roscovitine: 10 μM and 25 μM; for log IC50 on the PC secretion activity of ABCB4-WT / IC50: from dose-response curves of FIG. 4C; for IC50: read-out: IC50 on the PC secretion activity of ABCB4-WT", "experimental": "as §2\n(§3) HEK cells were seeded in 0.01% poly-L-lysine (Sigma) pre-coated 6-well plates of 10 cm^2 area per well (1.3×10^6 cells per well). After transient transfection of the empty vector (control), plasmids encoding ABCB4-WT or its variants, cells were incubated during 24 hours at 37° C. in serum-free medium supplemented with 0.5 mM sodium taurocholate (Sigma) and 0.02% fatty acid-free bovine serum albumin (Sigma). Then, the secreted PC was quantified from the collected media using a fluoro-enzymatic assay previously described (12). Each condition was analysed in triplicate, after background subtraction, and results were normalized to the expression levels of ABCB4 determined by immunoblots of the corresponding cell lysates."}, "[4]": {"molecular_target": "T2, ABCB4-L556R (Homo sapiens, UniProt P21439, L556R)", "T2 sequence (P21439 1-1279 isoform P21439-2 L556R)": "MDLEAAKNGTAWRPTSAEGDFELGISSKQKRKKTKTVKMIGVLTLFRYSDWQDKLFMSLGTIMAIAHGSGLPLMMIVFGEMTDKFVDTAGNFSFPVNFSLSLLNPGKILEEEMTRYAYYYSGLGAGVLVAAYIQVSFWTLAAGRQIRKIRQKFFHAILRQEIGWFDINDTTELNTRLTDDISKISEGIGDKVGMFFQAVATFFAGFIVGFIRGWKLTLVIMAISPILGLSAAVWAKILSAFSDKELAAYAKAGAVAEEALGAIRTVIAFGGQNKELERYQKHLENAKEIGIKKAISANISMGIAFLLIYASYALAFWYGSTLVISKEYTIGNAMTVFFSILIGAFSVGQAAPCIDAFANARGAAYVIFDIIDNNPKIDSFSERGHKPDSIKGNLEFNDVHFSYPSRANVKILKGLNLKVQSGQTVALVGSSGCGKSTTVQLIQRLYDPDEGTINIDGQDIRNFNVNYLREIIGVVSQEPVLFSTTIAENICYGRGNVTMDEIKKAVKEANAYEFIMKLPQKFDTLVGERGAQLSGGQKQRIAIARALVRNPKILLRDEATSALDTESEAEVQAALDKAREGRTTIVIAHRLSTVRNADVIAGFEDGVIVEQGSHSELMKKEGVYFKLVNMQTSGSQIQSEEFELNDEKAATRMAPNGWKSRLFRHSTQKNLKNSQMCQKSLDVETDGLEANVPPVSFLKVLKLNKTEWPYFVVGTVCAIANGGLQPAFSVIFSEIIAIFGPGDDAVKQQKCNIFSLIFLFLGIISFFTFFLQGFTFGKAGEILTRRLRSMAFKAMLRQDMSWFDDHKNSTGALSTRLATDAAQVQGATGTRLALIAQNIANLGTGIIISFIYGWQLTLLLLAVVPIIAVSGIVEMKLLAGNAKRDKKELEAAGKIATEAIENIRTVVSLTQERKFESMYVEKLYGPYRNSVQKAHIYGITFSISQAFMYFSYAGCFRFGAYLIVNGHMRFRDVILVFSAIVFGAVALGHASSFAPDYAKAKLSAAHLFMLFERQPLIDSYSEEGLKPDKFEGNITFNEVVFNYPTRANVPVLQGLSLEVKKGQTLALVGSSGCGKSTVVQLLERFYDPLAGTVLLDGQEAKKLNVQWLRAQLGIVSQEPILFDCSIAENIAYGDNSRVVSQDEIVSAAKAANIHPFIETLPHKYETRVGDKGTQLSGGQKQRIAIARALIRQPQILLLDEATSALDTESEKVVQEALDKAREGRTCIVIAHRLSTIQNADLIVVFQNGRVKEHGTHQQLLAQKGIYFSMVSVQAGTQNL", "assay": "Canalicular localisation of ABCB4-L556R by indirect immunofluorescence in HepG2 cells", "assay_type": "cell-based", "set-up": "The subcloning of wild type (WT) ABCB4, isoform A (NM_000443.3), into pcDNA3 vector has been described; expressed in transfected cells; host or cells: HepG2 (immunofluorescence)", "conditions": "25 μM", "experimental": "as §1"}, "[5]": {"molecular_target": "T2, ABCB4-L556R", "assay": "Maturation of ABCB4-L556R by immunoblot in HEK cells", "assay_type": "cell-based", "set-up": "The subcloning of wild type (WT) ABCB4, isoform A (NM_000443.3), into pcDNA3 vector has been described; expressed in transfected cells; host or cells: HEK-293 (immunoblot, PC secretion)", "conditions": "5 to 25 μM", "experimental": "Western blots and indirect immunofluorescence were performed as previously described (2, 12). […] Saturated membranes were incubated with mouse monoclonal anti-ABCB4 (clone P3II-26; Enzo Life Sciences, Villeurbanne, France) or anti-α-tubulin (clone 1E4C11; ProteinTech, Manchester, United Kingdom) antibodies and then with peroxidase conjugated anti-mouse secondary antibodies (Sigma). Signals were detected with ECL prime western blotting detection reagent (GE Healthcare, Velizy-Villacoublay, France) and quantified in the linear range of detection using ImageJ 1.50i software (U.S. National Institutes of Health, Bethesda, Md.)."}, "[6]": {"molecular_target": "T3, CLK1 (Homo sapiens, UniProt P49759)", "T3 construct": "made in house", "assay": "Protein kinase catalytic activity assay, CLK1", "assay_type": "biochemical", "conditions": "read-out: IC50 of protein kinases, CLK1"}, "[7]": {"molecular_target": "T4, CDK2/A (Homo sapiens, UniProt P24941)", "T4 construct": "made in house", "assay": "Protein kinase catalytic activity assay, CDK2/cyclin A", "assay_type": "biochemical", "conditions": "activator cyclin A; read-out: IC50 of protein kinases, CDK2/A"}, "[8]": {"molecular_target": "T5, DYRK1A (Homo sapiens, UniProt Q13627)", "T5 construct": "made in house", "assay": "Protein kinase catalytic activity assay, DYRK1A", "assay_type": "biochemical", "conditions": "read-out: IC50 of protein kinases, DYRK1A"}, "[9]": {"molecular_target": "T2, ABCB4-L556R", "assay": "ABCB4-mediated phosphatidylcholine secretion, HEK cells expressing ABCB4-L556R", "assay_type": "cell-based", "set-up": "The subcloning of wild type (WT) ABCB4, isoform A (NM_000443.3), into pcDNA3 vector has been described; expressed in transfected cells; host or cells: HEK-293 (immunoblot, PC secretion)", "conditions": "25 μM", "experimental": "as §2, §3"}}, "note": "Entries after “also recorded” stand apart in the source; their conditions may differ."}
{"compound": "CC[C@@H](Nc1nc(NCc2cccc(F)c2)c2ncn(C3CCCC3)c2n1)C(=O)O", "note": "[MRT2-235]", "values": [{"measurement": "relocalisation of ABCB4-I490T at bile canaliculi", "setting": "[1]", "value": "partially relocalised at bile canaliculi"}, {"measurement": "maturation (mature form) of ABCB4-I541F", "setting": "[2]", "value": "significantly increase the expression of a mature form of ABCB4-I541F; also recorded: significant rescue of the maturation"}, {"measurement": "correction of ABCB4-I541F maturation", "setting": "[2]", "value": "dose-dependent correction of ABCB4-I541F maturation"}, {"measurement": "inhibition of ABCB4-WT-mediated PC secretion compared to roscovitine", "setting": "[3]", "value": "less inhibitory than the original molecule"}, {"measurement": "log IC50 on the PC secretion activity of ABCB4-WT", "setting": "[3]", "value": "−4.678"}, {"measurement": "IC50", "setting": "[3]", "value": 21, "unit": "µM"}, {"measurement": "relocalisation of ABCB4-L556R at bile canaliculi", "setting": "[4]", "value": "partially relocalised at bile canaliculi"}, {"measurement": "rescue of the maturation of ABCB4-L556R", "setting": "[5]", "value": "dose-dependent rescue of the maturation"}, {"measurement": "IC50", "setting": "[6]", "value": 11, "unit": "µM"}, {"measurement": "IC50", "setting": "[7]", "value": 5.9, "unit": "µM"}, {"measurement": "IC50", "setting": "[8]", "value": 21, "unit": "µM"}, {"measurement": "PC secretion residual activity of ABCB4-L556R", "setting": "[9]", "value": "significant increase of the residual activity"}]}
{"compound": "CC[C@@H](Nc1nc(NCc2cccc(Cl)c2)c2ncn(C3CCCC3)c2n1)C(=O)O", "note": "[MRT2-237]", "values": [{"measurement": "relocalisation of ABCB4-I490T at bile canaliculi", "setting": "[1]", "value": "partially relocalised at bile canaliculi"}, {"measurement": "maturation (mature form) of ABCB4-I541F", "setting": "[2]", "value": "significantly increase the expression of a mature form of ABCB4-I541F; also recorded: significant rescue of the maturation"}, {"measurement": "correction of ABCB4-I541F maturation", "setting": "[2]", "value": "dose-dependent correction of ABCB4-I541F maturation"}, {"measurement": "inhibition of ABCB4-WT-mediated PC secretion compared to roscovitine", "setting": "[3]", "value": "less inhibitory than the original molecule"}, {"measurement": "log IC50 on the PC secretion activity of ABCB4-WT", "setting": "[3]", "value": "−4.533"}, {"measurement": "IC50", "setting": "[3]", "value": 29.3, "unit": "µM"}, {"measurement": "relocalisation of ABCB4-L556R at bile canaliculi", "setting": "[4]", "value": "partially relocalised at bile canaliculi"}, {"measurement": "rescue of the maturation of ABCB4-L556R", "setting": "[5]", "value": "dose-dependent rescue of the maturation"}, {"measurement": "IC50", "setting": "[6]", "value": 8.5, "unit": "µM"}, {"measurement": "IC50", "setting": "[7]", "value": 3.4, "unit": "µM"}, {"measurement": "IC50", "setting": "[8]", "value": 13, "unit": "µM"}, {"measurement": "PC secretion residual activity of ABCB4-L556R", "setting": "[9]", "value": "significant increase of the residual activity"}]}
{"compound": "CC[C@@H](Nc1nc(NCc2ccc(Cl)c(F)c2)c2ncn(C3CCCC3)c2n1)C(=O)O", "note": "[MRT2-243]", "values": [{"measurement": "relocalisation of ABCB4-I490T at bile canaliculi", "setting": "[1]", "value": "partially relocalised at bile canaliculi"}, {"measurement": "maturation (mature form) of ABCB4-I541F", "setting": "[2]", "value": "significantly increase the expression of a mature form of ABCB4-I541F; also recorded: significant rescue of the maturation"}, {"measurement": "correction of ABCB4-I541F maturation", "setting": "[2]", "value": "dose-dependent correction of ABCB4-I541F maturation"}, {"measurement": "inhibition of ABCB4-WT-mediated PC secretion compared to roscovitine", "setting": "[3]", "value": "less inhibitory than the original molecule"}, {"measurement": "log IC50 on the PC secretion activity of ABCB4-WT", "setting": "[3]", "value": "−4.754"}, {"measurement": "IC50", "setting": "[3]", "value": 17.6, "unit": "µM"}, {"measurement": "relocalisation of ABCB4-L556R at bile canaliculi", "setting": "[4]", "value": "partially relocalised at bile canaliculi"}, {"measurement": "rescue of the maturation of ABCB4-L556R", "setting": "[5]", "value": "dose-dependent rescue of the maturation"}, {"measurement": "IC50", "setting": "[6]", "value": 20, "unit": "µM"}, {"measurement": "IC50", "setting": "[7]", "value": 3, "unit": "µM"}, {"measurement": "IC50", "setting": "[8]", "value": 12, "unit": "µM"}, {"measurement": "PC secretion residual activity of ABCB4-L556R", "setting": "[9]", "value": "significant increase of the residual activity"}]}
